The results in this text go back to ChEMBL document CHEMBL1128291, “The C-32 triacetyl-L-rhamnose derivative of ascomycin: a potent, orally active macrolactone immunosuppressant” (J Med Chem, 1995).

Data set [1] relates to Rattus norvegicus. Put plainly: In vivo immunosuppressive activity was evaluated by surgically implanting the hearts from Brown Norway rats into the peritoneal cavity of histoincompatible Lewis rats and rejection was assessed. It counts as functional.
The subject of data set [2] is Rattus norvegicus. In words: In vivo immunosuppressive activity was evaluated by inducing arthritis in lewis rats and measuring the primary lesions after 16 days. Conditions: 384 h. It counts as functional.
Data set [3] has as its system Rattus norvegicus. In words: In vivo immunosuppressive activity was evaluated by inducing arthritis in lewis rats and measuring the secondary lesions after 16 days. It counts as functional. As to conditions: 384 h.
Data set [4] is described as follows: Drug plasma level in rat was determined on the last day of dosing at 1,2,4.8 and 24 hr and ED50 was evaluated. The data set is classed as ADME, organism-based.
The species named for data set [5] is Rattus norvegicus. In words: Minimum neurotoxic dose from ED50(rat adjuvant arthritis). It counts as functional.
Data set [6] is filed under the species Rattus norvegicus. In words: Minimum neurotoxic dose/Cmax was determined from ED50(rat adjuvant arthritis). It counts as functional.
Data set [7] is described as follows: Therapeutic index was determined from the ratio of MND to the ED50 Cmax.(rat adjuvant arthritis).
Data set [8] deals with T-cell. In words: In vitro inhibitory activity against human T-cell production of lymphokine IL-2. The data set is classed as functional, cell-based.
Data set [9] can be described thus: Therapeutic index is the plasma Cmax ratio of the minimum neurotoxic dose over the ED50 dose in rat adjuvant arthritis. Conditions: read-out: TI.
In data set [10] the test system is T-cell. In words: In vitro inhibitory activity against human T-cell proliferation. The data set is classed as functional, cell-based.

Structures are written as SMILES. A value given as a limit tells only on which side of the number the result lay.

Usually ED50 stands for the midpoint of the dose-response relation. Lower therefore signals greater potency. In [1], `C/C=C/C[C@@H](C)[C@@H](O)[C@H]1C(=O)N[C@@H](CC)C(=O)N(C)CC(=O)N(C)[C@@H](CC(C)C)C(=O)N[C@@H](C(C)C)C(=O)N(C)[C@@H](CC(C)C)C(=O)N[C@@H](C)C(=O)N[C@H](C)C(=O)N(C)[C@@H](CC(C)C)C(=O)N(C)[C@@H](CC(C)C)C(=O)N(C)[C@@H](C(C)C)C(=O)N1C` [CYCLOSPORINE] had an ED100 of 15 mg/kg. In addition, the ED50 in [2] came to 3.4 mg/kg; in data set [3], 0.7 mg/kg.

Broadly, the Cmax is the maximum level reached in the sampled fluid or tissue. As a reminder, the IC50 is the midpoint of a concentration-inhibition curve. A higher IC50 goes with weaker potency in that assay. As to `CC[C@@H]1/C=C(\C)C[C@H](C)C[C@H](OC)[C@H]2O[C@@](O)(C(=O)C(=O)N3CCCC[C@H]3C(=O)O[C@H](/C(C)=C/[C@@H]3CC[C@@H](OC4OC(C)C(OC(C)=O)C(OC(C)=O)C4OC(C)=O)[C@H](OC)C3)[C@H](C)[C@@H](O)CC1=O)[C@H](C)C[C@@H]2OC` (stereo partly drawn), in [4], the Cmax was determined as 254 ng/mL. In [1], the ED100 came to 30 mg/kg. The ED50 in data set [2] is 10 mg/kg; in data set [3], 2.3 mg/kg. In addition, in data set [5], the MND was greater than 300 mg/kg. Besides, the MND Cmax in data set [6] was greater than 2910 ng/mL. Further, the Therapeutic index in data set [7] was greater than 10. Besides, the values for the IC50 in data set [8] and in data set [10] were 11 nM and 10.4 nM, respectively. Besides, the selectivity ratio in data set [9] was greater than 10.

With `C=CC[C@@H]1/C=C(\C)C[C@H](C)C[C@H](OC)[C@H]2O[C@@](O)(C(=O)C(=O)N3CCCC[C@H]3C(=O)O[C@H](/C(C)=C/[C@@H]3CC[C@@H](O)[C@H](OC)C3)[C@H](C)[C@@H](O)CC1=O)[C@H](C)C[C@@H]2OC` [TACROLIMUS ANHYDROUS], the peak level in data set [4] (Cmax) was 24 ng/mL. This compound had an ED100 in data set [1] of 3 mg/kg. Besides, the ED50 in data set [2] is 1.9 mg/kg; in data set [3], 0.6 mg/kg. For the same compound, the MND in [5] was found to be 12 mg/kg. In [6], the MND Cmax amounted to 52 ng/mL. For the same compound, in data set [7], the Therapeutic index was found to be 2. In addition, the figures for the IC50 in [8] and in data set [10] were 0.9 nM and 0.5 nM, respectively. In addition, in data set [9], the selectivity ratio was roughly 2.
